Patent US10980765B2, “Isothiocyanatostilbenes as a novel method and product for treating cancer” (BOARD OF SUPERVISORS OF LOUISIANA STATE UNIVERSITY AND …, priority 2015, dated 2021)

Key:
[1] = tested on: interaction of human immunodeficiency virus type-1 (HIV-1) with CD4 T-cell receptors; details: cited from earlier work
c-Met = c-Met (Homo sapiens, UniProt P08581); assay: Western blot of c-Met activation (phospho-c-Met) by HGF in cancer cell lines; format: cell-based; parameters: endogenous in cells; host or cells: DU145, PC3, MDA-MB-231, HCC1806
Description: (§1) Western blot was used to analyze pMet expression. […] Western blot was used to analyze the indicated proteins.
(§2) Western blot was used to analyze the indicated proteins.
as §2
(§3) Western blot analysis: Cells were grown to ˜70% confluency prior to treatment. Cells were serum-starved in serum-free media for 30 minutes prior to treatment in complete media or serum-free media for the indicated times. Cell lysates were collected in Laemmli (125 mM Tris, 4% SDS, 0.01% bromophenol blue, 30% sucrose) containing 0.5% β-mercaptoethanol and boiled ˜8 minutes. Primary antibodies include: phospho-c-Met (Y1234/1235), phospho-Akt (S473), pEGFR […], pIGF-IRβ (Y1135/1136) (Cell Signaling Technology; Beverly, Mass.); α-actin (Sigma-Aldrich), c-Met (C-28) (Life Technologies). Secondary antibodies include: horseradish peroxidase-conjugated anti-rabbit and anti-mouse (GE Healthcare; Pittsburgh, Pa.). ECL 2 was used for chemiluminescent detection (Thermo Scientific; Rockford, Ill.). Densitometry was calculated using ImageJ (NIH).

[2] = tested on: protein translocation across the ER membrane; details: cited from earlier work
succinic dehydrogenase = details: cited from earlier work
EGFR = target: T1, EGFR (Homo sapiens, UniProt P00533); assay: Western blot of EGFR activation by EGF in DU145 cells; format: cell-based; details: 4 μM DIDS or 25 μM H2DIDS; DU145, 100 ng/ml EGF 20 min
T1 construct: endogenous in cells; host or cells: DU145
Description: as §3

F0F1-ATP synthase = details: cited from earlier work
[3] = tested on: MDA-MB-231/GFP human breast cancer cells; assay: Xenograft study, orthotopic breast tumor growth; format: in vivo, Athymic nude mice; details: 5 mg/kg then 10 mg/kg i.p.
Description: Data are shown as average+S.E.M., *p<0.05.
Xenograft studies: All animal experiments were approved by the Institutional Animal Care and Use Committee, University of Louisiana at Monroe, and were handled in strict accordance with good animal practice as defined by the NIH guidelines. Athymic nude mice (Foxn1^nu/Foxn1^+, 4-5 weeks, female) were purchased from Harlan (Indianapolis, Ind.). The mice had free access to standard pellet food and water. The animals were acclimated to animal house facility conditions at a temperature of 18-25° C., with a relative humidity of 55 to 65% and a 12 h light/dark cycle, for one week prior to the experiments. MDA-MB-231/GFP human breast cancer cells were cultured and resuspended in serum-free DMEM medium (20 μl). After anesthesia, cell suspensions (1×10^6 cells/20 μl) were inoculated subcutaneously into the second mammary gland fat pad just beneath the nipple of each animal to generate orthotopic breast tumors. […] The mice were monitored by measuring tumor volume, body weight, and clinical observation. Tumor volume (V) was calculated by V=L/2×W^2, where L was the length and W was the width of tumors. The results are presented as average ±S.E.M. Differences among various treatment groups were determined by the analysis of variance (ANOVA) followed by Dunnett's test using PASW statistics version 18. […]

[4] = tested on: matrix metalloproteinase release; details: cited from earlier work
Akt = assay: Western blot of downstream Akt (phospho-Akt) in HGF-treated DU145 cells; format: cell-based; details: ˜8 μM compound, 33 ng/ml HGF 20 min, serum-free
Description: as §3

wild-type c-Met = wild-type c-Met (Homo sapiens, UniProt P08581); assay: Phosphorylation inhibition assay (Z′-LYTE Kinase Assay-Tyr6 Peptide), wild-type c-Met; format: biochemical; details: cell-free kinase assay, 200 μM ATP; read-out: IC50, activation of wild-type c-Met
Description: as §1
(§4) Phosphorylation inhibition assay: Z′-LYTE™ Kinase Assay-Tyr6 Peptide kit (Invitrogen) was used to assess the ability of tested compounds to inhibit c-Met phosphorylation. […] After 1 hour incubation at room temperature, 10 μl development solution containing site-specific protease was added to each well. Incubation was continued for 1 hour. The reaction was then stopped, and the fluorescent signal ratio of 445 nm (coumarin)/520 nm (fluorescein) was determined on a plate reader (BioTek FLx800™), which reflects the peptide substrate cleavage status and/or the kinase inhibitory activity in the reaction. […] The IC50 value for each compound was calculated by nonlinear regression of log concentration versus % c-Met phosphorylation ±S.E.M., implemented in GraphPad Prism version 5.0 (GraphPad Software, CA, USA).

c-Met M1250T (M1268T) = c-Met M1250T (M1268T) (Homo sapiens, UniProt P08581, M1250T); assay: Phosphorylation inhibition assay (Z′-LYTE Kinase Assay-Tyr6 Peptide), mutant c-Met; format: biochemical; details: cell-free kinase assay, 200 μM ATP
Description: as §1, §4

Chain of c-Met (P08581 25-1390): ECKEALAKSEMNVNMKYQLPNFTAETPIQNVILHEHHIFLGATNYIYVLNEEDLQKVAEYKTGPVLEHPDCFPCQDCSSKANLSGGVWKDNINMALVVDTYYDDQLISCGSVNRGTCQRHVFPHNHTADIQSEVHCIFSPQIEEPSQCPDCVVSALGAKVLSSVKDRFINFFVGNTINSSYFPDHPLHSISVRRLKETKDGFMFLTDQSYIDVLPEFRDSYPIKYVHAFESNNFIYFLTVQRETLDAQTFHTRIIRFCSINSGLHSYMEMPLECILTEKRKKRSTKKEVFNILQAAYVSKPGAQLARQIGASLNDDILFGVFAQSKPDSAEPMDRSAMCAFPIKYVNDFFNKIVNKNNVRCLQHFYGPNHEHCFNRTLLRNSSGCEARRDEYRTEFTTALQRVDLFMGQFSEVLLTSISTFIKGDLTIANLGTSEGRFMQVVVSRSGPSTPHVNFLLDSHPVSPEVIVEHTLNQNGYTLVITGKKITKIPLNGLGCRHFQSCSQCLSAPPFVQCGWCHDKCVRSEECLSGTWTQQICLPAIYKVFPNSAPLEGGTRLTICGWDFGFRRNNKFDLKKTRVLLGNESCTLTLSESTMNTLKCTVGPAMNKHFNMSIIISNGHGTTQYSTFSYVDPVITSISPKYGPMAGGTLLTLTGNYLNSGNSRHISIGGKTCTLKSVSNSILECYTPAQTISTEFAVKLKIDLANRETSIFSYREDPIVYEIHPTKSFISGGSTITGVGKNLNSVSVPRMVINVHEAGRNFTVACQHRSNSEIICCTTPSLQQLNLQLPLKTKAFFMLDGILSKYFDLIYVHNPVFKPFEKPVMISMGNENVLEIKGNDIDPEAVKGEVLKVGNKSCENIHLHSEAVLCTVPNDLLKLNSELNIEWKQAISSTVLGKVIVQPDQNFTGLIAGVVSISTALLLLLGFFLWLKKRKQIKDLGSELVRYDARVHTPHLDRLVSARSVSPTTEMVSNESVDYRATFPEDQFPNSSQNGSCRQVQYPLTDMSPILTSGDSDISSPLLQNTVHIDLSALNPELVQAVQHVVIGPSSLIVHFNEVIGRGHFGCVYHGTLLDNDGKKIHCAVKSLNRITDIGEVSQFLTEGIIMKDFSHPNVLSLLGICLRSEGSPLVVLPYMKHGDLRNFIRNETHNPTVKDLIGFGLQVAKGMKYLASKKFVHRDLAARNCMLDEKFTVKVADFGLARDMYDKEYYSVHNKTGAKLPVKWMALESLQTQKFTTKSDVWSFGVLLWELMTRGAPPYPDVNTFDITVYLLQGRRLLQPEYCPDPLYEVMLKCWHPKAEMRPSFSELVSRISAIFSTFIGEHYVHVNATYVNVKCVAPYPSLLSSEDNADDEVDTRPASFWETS
Chain of c-Met M1250T (M1268T) (P08581 956-1390 M1250T limits assumed): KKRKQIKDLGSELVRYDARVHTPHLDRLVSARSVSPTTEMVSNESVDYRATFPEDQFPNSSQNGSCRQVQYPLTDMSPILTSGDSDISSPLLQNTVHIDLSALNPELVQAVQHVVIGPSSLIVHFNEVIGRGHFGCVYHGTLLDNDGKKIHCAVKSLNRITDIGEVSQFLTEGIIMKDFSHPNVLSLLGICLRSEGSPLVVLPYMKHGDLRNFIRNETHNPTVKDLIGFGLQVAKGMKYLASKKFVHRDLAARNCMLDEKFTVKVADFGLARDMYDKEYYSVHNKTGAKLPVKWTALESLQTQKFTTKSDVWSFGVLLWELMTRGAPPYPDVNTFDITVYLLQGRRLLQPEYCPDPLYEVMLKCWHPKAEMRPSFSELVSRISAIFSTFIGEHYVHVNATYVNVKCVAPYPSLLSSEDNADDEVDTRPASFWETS
T1 sequence (P00533 25-1210): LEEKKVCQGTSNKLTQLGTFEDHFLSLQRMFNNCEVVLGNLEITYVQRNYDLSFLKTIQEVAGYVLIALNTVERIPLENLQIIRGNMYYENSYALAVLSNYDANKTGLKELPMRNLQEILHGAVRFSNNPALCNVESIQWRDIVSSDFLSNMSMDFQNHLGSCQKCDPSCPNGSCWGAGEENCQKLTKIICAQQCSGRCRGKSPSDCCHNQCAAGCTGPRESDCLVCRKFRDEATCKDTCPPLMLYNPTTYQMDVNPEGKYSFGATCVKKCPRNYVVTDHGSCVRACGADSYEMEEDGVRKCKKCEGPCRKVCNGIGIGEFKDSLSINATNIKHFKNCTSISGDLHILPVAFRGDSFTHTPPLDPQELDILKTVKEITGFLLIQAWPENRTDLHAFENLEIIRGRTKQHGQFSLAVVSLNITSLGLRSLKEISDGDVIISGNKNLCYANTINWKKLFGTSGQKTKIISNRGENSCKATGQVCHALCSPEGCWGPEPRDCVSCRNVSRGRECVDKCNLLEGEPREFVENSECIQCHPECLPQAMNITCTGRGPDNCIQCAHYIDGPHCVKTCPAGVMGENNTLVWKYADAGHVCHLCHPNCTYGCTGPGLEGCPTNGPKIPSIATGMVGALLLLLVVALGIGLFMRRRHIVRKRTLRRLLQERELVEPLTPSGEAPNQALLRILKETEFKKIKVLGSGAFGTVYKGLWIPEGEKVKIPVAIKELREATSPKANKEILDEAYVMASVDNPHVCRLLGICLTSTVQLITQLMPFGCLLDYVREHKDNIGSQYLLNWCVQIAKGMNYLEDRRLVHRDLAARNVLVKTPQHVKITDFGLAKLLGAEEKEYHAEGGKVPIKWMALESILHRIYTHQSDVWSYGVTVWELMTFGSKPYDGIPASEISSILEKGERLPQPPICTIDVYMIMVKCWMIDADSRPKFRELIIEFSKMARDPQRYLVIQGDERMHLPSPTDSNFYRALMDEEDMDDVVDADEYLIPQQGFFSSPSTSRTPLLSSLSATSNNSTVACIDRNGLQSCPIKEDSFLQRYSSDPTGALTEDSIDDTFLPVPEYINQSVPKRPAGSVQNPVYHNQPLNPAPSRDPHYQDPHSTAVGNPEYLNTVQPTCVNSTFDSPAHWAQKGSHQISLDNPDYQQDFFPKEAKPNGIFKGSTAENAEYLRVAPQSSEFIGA
Chain of wild-type c-Met (P08581 25-1390): as the sequence (P08581 25-1390) above

O=S(=O)(O)c1cc(N=C=S)ccc1C=Cc1ccc(N=C=S)cc1S(=O)(=O)O [DIDS, 4,4′-Diisothiocyanatostilbene-2,2′-disulfonic acid]
concentration preventing interaction of HIV-1 with CD4 T-cell receptors [1]: low micromolar concentrations | reduction of c-Met activation (c-Met; 8 μM compound, DU145 cells, 33 ng/ml HGF 20 min, serum-free, Western blot densitometry): ~90% | pMet levels, compound given post HGF treatment (c-Met; DU145, 33 ng/ml HGF 20 min, wash, then 4 μM DIDS 20 or 60 minutes): reduced pMet levels | reversibility of c-Met inhibition after wash (c-Met; DU145, 4 μM DIDS 20 min, one wash, recovery from 20 minutes up to 1 hour, then 33 ng/ml HGF): does not irreversibly bind c-Met | effective concentrations for reducing c-Met activation in 10% FBS (c-Met; DU145 cells, 33 ng/ml HGF 20 min, 10% FBS RPMI, compared with serum-free): slightly higher effective concentrations | c-Met inhibitory effective doses (c-Met; multiple cancer cell lines (summary)): low micromolar range | concentration inhibiting protein translocation across the ER membrane [2]: ≥ 400 µM | concentration reducing activity of succinic dehydrogenase (succinic dehydrogenase): low micromolar concentrations | EGFR activation (EGFR): do not significantly reduce | concentration reducing activity of F0F1-ATP synthase (F0F1-ATP synthase): low micromolar concentrations | tumor size (caliper) ([3]; 3×/week): began to reduce tumor size towards the end of the experiment | overall tumor weight at necropsy ([3]; end of experiment, *p<0.05): Differences in overall tumor weight were evident | concentration inhibiting matrix metalloproteinase release [4]: ≥ 400 µM | reduction of downstream Akt (Akt): ~90% | IC50 (wild-type c-Met): 300 nM | IC50 (c-Met M1250T (M1268T)): 370 nM
